Reference: US20250145639A1, “MUTANT KRAS MODULATORS AND USES THEREOF” (NEWAVE PHARMACEUTICAL INC., priority 2021, published 2025)
pIC50: −log10 of the molar value.

How the values were obtained:
HIS-KRAS (G12V) = HIS-KRAS (G12V) (Homo sapiens, UniProt P01116, G12V); test: KRas G12V binding assay (TR-FRET, SOS1-mediated BODIPY FL GTP nucleotide exchange); conditions: GDP-loaded HIS-KRAS (G12V) 3 nM, 1 hour pre-incubation with compound, 4 hours with SOS1 ExD and BODIPY FL GTP at 25° C
Description: Biological Example 3: KRas G12V Binding Assay
HIS-KRAS (G12V) was diluted to 5 uM in EDTA buffer (20 mM HEPES, pH 7.4, 50 mM NaCl, 10 mM EDTA, 0.01% (v/v) Tween-20) and incubated for 30 min at 25° C. The EDTA pretreated HIS-KRAS (G12V) was diluted to 12 nM in assay buffer (25 mM HEPES, pH 7.4, 120 mM NaCl, 5 mM MgCl 2, 1 mM DTT, 0.01% (v/v) Tween 20, 0.1% (w/v) BSA) containing 120 nM GDP (Sigma) and MAb Anti 6HIS—Tb cryptate Gold (Cisbio) and incubated for 1 hour at 25° C. to prepare GDP-loaded HIS-KRAS (G12V). The GDP-loaded HIS-KRAS (G12V) was pre-incubation with diluted compounds in a 384-well plate (Greiner) for 1 hour, then purified SOS1 ExD (Flag tag, aa 564-1049) and BODIPY™ FL GTP (Invitrogen) were added to the assay wells (Final concentration: 3 nM HIS-KRAS (G12V), 2 uM SOS1 ExD, 80 nM BODIPY™ FL GTP, 21 ng/mL MAb Anti 6HIS—Tb cryptate Gold) and incubated for 4 hours at 25° C. TR-FRET signals were then read on Tecan Spark multimode microplate reader. The parameters were F486: Excitation 340 (35) nm, Emission 486 (10) nm, Lag time 100 μs, Integration time 200 μs; F515: Excitation 340 (35) nm, Emission 515 (10) nm, Lag time 100 μs, Integration time 200 μs. TR-FRET ratios for each individual wells were calculated by equation: TR-FRET ratio=(Signal F515/Signal F486)*10000. Then the data were analyzed using a 4-parameter logistic model to calculate IC50 values. The following table lists the IC50 values of certain compounds of the invention.

[1] = target: T1, GDP-loaded, histidine-tagged, truncated (1-169) KRAS G12C (Homo sapiens, UniProt P01116, G12C); test: KRas G12C in vitro covalent MS-based assay; type: binding; conditions: KRAS protein 2 uM, denaturing SEC-MS intact mass
T1 construct: histidine-tagged, truncated (1-169) KRAS proteins; His
Description: Biological Example 2: KRas G12C In Vitro Covalent MS-Based Assay
GDP-loaded, histidine-tagged, truncated (1-169) KRAS proteins (G12C, WT, G13D, as indicated) at 2 uM final concentration were incubated with the test compounds at the doses and time points indicated in a buffer containing 20 mmol/L HEPES pH 7.5, 150 mmol/L NaCl, 1 mmol/L MgCl 2, and 1 mmol/L DTT. Reactions were quenched by adding formic acid to 0.2%. Samples were buffer exchanged and analyzed by denaturing SEC-MS (Orbitrap Eclipse), Mobile phase: 30% ACN, 0.1% formic acid, 0.02% TFA. Raw data were analyzed by charge state deconvolution with BioPharma Finder 4.1 Intact Mass, ReSpect and Sliding Window algorithms. The masses were calculated via software for KRAS_G12C theoretical sequence and experimental compounds.

[2] = target: T2, HIS-KRAS (G12C, aa 2-185) (Homo sapiens, UniProt P01116, G12C); test: KRas G12C binding assay (TR-FRET, SOS1-mediated BODIPY FL GTP nucleotide exchange); conditions: GDP-loaded HIS-KRAS (G12C) 3 nM, 1 hour pre-incubation with compound, 4 hours with SOS1 ExD and BODIPY FL GTP at 25° C
T2 construct: HIS-KRAS (G12C, aa 2-185, Sino biological); purchased Sino biological
Description: Biological Example 1: KRas G12C Binding Assay
HIS-KRAS (G12C, aa 2-185, Sino biological) was diluted to 5 uM in EDTA buffer (20 mM HEPES, pH 7.4, 50 mM NaCl, 10 mM EDTA, 0.01% (v/v) Tween-20) and incubated for 30 min at 25° C. The EDTA pretreated HIS-KRAS (G12C) was diluted to 12 nM in assay buffer (25 mM HEPES, pH 7.4, 120 mM NaCl, 5 mM MgCl 2, 1 mM DTT, 0.01% (v/v) Tween 20, 0.1% (w/v) BSA) containing 120 nM GDP (Sigma) and MAb Anti 6HIS—Tb cryptate Gold (Cisbio) and incubated for 1 hour at 25° C. to prepare GDP-loaded HIS-KRAS (G12C). The GDP-loaded HIS-KRAS (G12C) was pre-incubation with diluted compounds in a 384-well plate (Greiner) for 1 hour, then purified SOS1 ExD (Flag tag, aa 564-1049) and BODIPY™ FL GTP (Invitrogen) were added to the assay wells (Final concentration: 3 nM HIS-KRAS (G12C), 2 uM SOS1 ExD, 80 nM BODIPY™ FL GTP, 21 ng/mL MAb Anti 6HIS—Tb cryptate Gold) and incubated for 4 hours at 25° C. TR-FRET signals were then read on Tecan Spark multimode microplate reader. The parameters were F486: Excitation 340 (35) nm, Emission 486 (10) nm, Lag time 100 μs, Integration time 200 μs; F515: Excitation 340 (35) nm, Emission 515 (10) nm, Lag time 100 μs, Integration time 200 μs. TR-FRET ratios for each individual wells were calculated by equation: TR-FRET ratio=(Signal F515/Signal F486)*10000. Then the data were analyzed using a 4-parameter logistic model to calculate IC50 values. The following table lists the IC50 values of certain compounds of the invention.

HIS-KRAS (G12V), sequence (P01116 1-188 isoform P01116-2 G12V): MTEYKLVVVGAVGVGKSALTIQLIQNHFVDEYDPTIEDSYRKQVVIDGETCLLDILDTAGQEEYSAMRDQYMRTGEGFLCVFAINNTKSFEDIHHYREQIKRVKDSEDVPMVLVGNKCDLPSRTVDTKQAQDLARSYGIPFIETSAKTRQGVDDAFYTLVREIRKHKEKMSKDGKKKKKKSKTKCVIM
T1 sequence (P01116 1-169 isoform P01116-2 G12C): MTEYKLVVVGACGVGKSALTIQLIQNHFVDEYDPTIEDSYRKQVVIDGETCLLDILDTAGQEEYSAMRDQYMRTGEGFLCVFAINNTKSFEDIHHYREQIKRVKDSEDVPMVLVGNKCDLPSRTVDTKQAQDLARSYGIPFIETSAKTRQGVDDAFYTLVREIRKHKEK
T2 sequence (P01116 2-185 isoform P01116-2 G12C): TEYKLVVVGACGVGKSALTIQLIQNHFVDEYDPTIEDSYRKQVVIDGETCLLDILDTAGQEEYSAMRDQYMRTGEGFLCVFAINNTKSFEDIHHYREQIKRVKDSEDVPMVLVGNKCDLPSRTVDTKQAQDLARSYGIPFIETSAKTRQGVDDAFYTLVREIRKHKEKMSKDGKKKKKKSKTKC

C#Cc1c(F)ccc2cc(O)cc(-c3ncc4c(N5CCCC[C@@H](NC(=O)C=C)C5)nc(OCC56CCCN5CCC6)nc4c3F)c12 [Example 8, N-[(3R)-1-[7-(8-ethynyl-7-fluoro-3-hydroxynaphthalen-1-yl)-8-fluoro-2-(hexahydropyrrolizin-7a-ylmethoxy)pyrido[4,3-d]pyrimidin-4-yl]azepan-3-yl]prop-2-enamide]
pIC50 (HIS-KRAS (G12V)): 7.64
Binding Model [1]: Covalent binding
pIC50 [2]: 8.15

C#Cc1c(F)ccc2cc(O)cc(-c3ncc4c(N5CCCC[C@H](NC(=O)C=C)C5)nc(OCC56CCCN5CCC6)nc4c3F)c12 [Example 9, N-[(3S)-1-[7-(8-ethynyl-7-fluoro-3-hydroxynaphthalen-1-yl)-8-fluoro-2-(hexahydropyrrolizin-7a-ylmethoxy)pyrido[4,3-d]pyrimidin-4-yl]azepan-3-yl]prop-2-enamide]
pIC50 (HIS-KRAS (G12V)): 8.50
Binding Model [1]: Covalent binding
pIC50 [2]: 8.19
